Values quoted from earlier work, collected in paper PMC6719874 (PLoS ONE, 2019).
Entries after “also recorded” stand apart in the source; their conditions may differ.

What was measured:
[1] = tested on: tumors / human xenografts
L-type calcium channels = tested on: L-type calcium channels; parameters: method as in PMID 17125805, PMID 19887376
Y652A hERG = target: T1, Y652A hERG (Homo sapiens, UniProt Q12809, Y652A); settings: Y652A ref 87
T1 construct: host or cells: Xenopus laevis oocytes injected with cRNA
T1 sequence (Q12809 whole entry Y652A): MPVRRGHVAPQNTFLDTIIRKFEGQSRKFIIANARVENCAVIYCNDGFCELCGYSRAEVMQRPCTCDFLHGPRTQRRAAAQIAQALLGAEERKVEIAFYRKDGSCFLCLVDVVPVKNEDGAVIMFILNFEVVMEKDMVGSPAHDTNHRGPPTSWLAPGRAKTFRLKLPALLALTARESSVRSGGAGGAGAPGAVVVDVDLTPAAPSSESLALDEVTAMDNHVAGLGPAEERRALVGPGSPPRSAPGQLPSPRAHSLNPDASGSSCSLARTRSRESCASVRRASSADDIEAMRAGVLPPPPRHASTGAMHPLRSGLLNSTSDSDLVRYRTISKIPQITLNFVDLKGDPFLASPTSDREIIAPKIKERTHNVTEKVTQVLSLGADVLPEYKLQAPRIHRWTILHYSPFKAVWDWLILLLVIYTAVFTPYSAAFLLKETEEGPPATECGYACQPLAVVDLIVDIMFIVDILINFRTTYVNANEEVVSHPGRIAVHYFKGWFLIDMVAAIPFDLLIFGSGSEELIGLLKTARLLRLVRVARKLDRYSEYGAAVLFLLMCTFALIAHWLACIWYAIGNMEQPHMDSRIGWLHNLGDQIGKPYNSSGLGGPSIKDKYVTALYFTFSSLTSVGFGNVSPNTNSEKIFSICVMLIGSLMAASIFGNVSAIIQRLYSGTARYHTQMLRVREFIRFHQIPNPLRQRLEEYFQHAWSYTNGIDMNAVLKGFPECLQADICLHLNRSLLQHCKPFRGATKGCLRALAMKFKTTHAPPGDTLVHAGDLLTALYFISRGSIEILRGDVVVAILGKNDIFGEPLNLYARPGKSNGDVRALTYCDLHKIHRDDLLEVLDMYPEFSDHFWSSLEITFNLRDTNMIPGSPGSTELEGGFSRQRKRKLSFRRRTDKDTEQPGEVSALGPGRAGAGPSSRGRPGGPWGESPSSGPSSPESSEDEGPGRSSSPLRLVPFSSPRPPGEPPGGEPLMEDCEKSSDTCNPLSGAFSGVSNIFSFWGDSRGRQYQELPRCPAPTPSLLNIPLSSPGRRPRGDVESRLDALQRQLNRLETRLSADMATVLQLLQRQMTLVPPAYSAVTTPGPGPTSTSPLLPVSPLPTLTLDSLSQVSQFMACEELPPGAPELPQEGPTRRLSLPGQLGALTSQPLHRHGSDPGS

F656A hERG = F656A hERG (Homo sapiens, UniProt Q12809, F656A); settings: F656A ref 87
F656A hERG, sequence (Q12809 whole entry F656A): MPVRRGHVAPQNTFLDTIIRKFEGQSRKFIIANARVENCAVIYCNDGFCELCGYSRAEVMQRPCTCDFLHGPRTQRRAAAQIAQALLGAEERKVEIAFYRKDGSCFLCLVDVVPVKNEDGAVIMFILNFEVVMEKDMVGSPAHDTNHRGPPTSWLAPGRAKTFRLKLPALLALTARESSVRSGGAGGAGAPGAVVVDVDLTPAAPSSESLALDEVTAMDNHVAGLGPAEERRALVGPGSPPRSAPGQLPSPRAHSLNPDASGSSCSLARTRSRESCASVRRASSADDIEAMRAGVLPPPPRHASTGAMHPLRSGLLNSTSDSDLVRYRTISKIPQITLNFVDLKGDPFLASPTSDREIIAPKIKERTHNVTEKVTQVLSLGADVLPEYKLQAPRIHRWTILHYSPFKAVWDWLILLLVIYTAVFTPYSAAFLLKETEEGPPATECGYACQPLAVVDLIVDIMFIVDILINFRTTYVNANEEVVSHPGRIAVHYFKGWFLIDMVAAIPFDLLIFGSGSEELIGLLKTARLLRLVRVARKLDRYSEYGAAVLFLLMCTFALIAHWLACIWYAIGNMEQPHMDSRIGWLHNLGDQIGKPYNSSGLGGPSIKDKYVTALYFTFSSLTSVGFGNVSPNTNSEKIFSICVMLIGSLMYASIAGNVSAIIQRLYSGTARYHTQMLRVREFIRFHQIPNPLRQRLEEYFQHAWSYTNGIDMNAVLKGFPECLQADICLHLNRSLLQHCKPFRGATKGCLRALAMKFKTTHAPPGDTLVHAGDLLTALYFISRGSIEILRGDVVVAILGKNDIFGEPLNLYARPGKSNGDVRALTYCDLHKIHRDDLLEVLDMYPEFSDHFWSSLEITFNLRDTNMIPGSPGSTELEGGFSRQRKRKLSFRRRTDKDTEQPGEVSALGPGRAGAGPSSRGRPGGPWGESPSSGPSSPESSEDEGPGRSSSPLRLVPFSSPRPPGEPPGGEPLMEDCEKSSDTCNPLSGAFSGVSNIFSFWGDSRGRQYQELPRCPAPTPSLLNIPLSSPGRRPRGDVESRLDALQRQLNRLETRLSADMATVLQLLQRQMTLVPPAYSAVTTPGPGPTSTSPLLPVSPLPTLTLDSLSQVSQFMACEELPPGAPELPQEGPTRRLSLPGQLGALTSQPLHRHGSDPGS

SMILES | tumor suppression ([1]; mice ref 75-77) | growth delay of human xenografts ([1]; mice ref 78) | potency of inhibition (L-type calcium channels) | inhibition of S620T compared to WT (S620T hERG) | QT prolongation or other cardiac side effects (clinical trial, range of concentrations ref 18) | tolerability (phase II clinical trials) | fold change in IC50 in relation to WT (Y652A hERG) | fold change in IC50 in relation to WT (F656A hERG)
CCC(CO)Nc1nc(NCc2ccccc2)c2ncn(C(C)C)c2n1 (centres unmarked) [R-roscovitine, 2-(1-ethyl-2-hydroxyethylamino)-6-benzylamino-9-isopropylpurine] | significant tumor suppression | significant growth delay | ~ 25 μM | similar; also recorded: not different from WT inhibition | did not find QT prolongation or other cardiac side effects | well tolerated | – | –
Cc1cccc(C)c1OCC(C)N (centres unmarked) [mexiletine] | – | – | – | – | – | – | ~ 12 fold | ~ 28 fold
